Key:
[1] = system: HEXIM1 targets in MCF7 cells; experiment: Western blot of HEXIM1 targets in MCF7 cells; assay type: cell-based; details: 5 mM HMBA or 50 uM 4a1, 18 h, relative to GAPDH
Protocol: FIG. 10 illustrates a Western blot of MCF7 cells treated with vehicle, 5 mM HMBA, or 50 uM 4a1 for 18 h, and processes for analyses of HEXIM1 targets relative to GAPDH.
(§1) Cell lysates were analyzed by western blot as previously described. Anti-HEXIM1 was generated in the Montano laboratory. Primary antibodies against p21 (C-19; cat# sc-397), cyclin D1 (HD11; cat# sc-246) and myc (9E10; cat# sc-40) were obtained from Santa Cruz Biotechnology. Anti-GAPDH was obtained from Millipore. Anti-HIF-1α was obtained from Oxy-cell, Bioresearch).
To assess the clinical potential of HMBA and 4a1 we need to determine to what extent the targets of HMBA and 4a1 overlap with that of HEXIM1. We focused on direct targets of HEXIM1 that we have identified.

[2] = system: recruitment of CDK9 to HEXIM1 gene in LNCaP cells; experiment: ChIP assay, CDK9 recruitment to HEXIM1 gene, LNCaP cells; assay type: cell-based; details: 5 mM HMBA or 50 μM 4a1, 90 minutes
Protocol: (§2) FIGS. 6(A-B) illustrate graphs showing HEXIM1 graphs showing HMBA and 4a1 induced recruitment of CDK9 to HEXIM1 promoter in MCF7 and LNCaP cells treated with 5 mM HMBA or 50 μM 4a1 for 90 minutes.
(§3) ChIP assays were carried out as previously described. Anti-CDK9 antibody (D-7; cat# sc-13130) was obtained from Santa Cruz Biotechnology.
(§4) The induction of HEXIM1 by HMBA appears to involve the release of free P-TEFb from 7SK snRNP, and recruitment of P-TEFb to HEXIM1 gene. P-TEFb is a heterodimer between the cyclin-dependent kinase 9 (Cdk9) and its regulatory subunit Cyclin T1 (CycT1). We thus determined the regulation of the recruitment of CDK9 to the HEXIM1 coding sequence by HMBA and 4a1.

HEXIM1 = details: in vitro cell cultures; cited from earlier work
[3] = system: triple negative MDA-MB-231 breast cancer cells; experiment: Nile red staining of lipid droplets (differentiation marker), MDA-MB-231 cells; assay type: cell-based; details: 72 hours
Protocol: (§5) FIGS. 8(A-B) illustrate images showing (A) MCF7 cells transfected with control or HEXIM1 siRNA or (B) MDA-MB-231 transfected with control or HEXIM1 expression vector treated with vehicle (DMSO), HMBA, or 4a1 for 72 hours. Lower panels show Western blot analyses of HEXIM1 expression in MDA-MB-231 cells transfected with control or expression vector for Flag-tagged HEXIM1.
(§6) Cells were stained with Nile red for lipid droplets (marker of cell differentiation). Briefly, the stock solution of Nile red 1 mg/ml in acetone was diluted in PBS (1:1000). The fixed cells (4% paraformaldehyde) were incubated with diluted Nile red for 5 minutes at room temperature, rinsed with PBS and observed for the presence of lipid droplets by confocal microscopy. Images were digitally captured using a Leica microscope (Leica Microsystems Inc, IL, USA).

[4] = system: HEXIM1 expression in MCF7/TOTR cells; experiment: HEXIM1 expression in tamoxifen resistant MCF7/TOTR cells; assay type: cell-based; details: 5 mM HMBA or 50 μM 4a1
Protocol: (§7) FIGS. 9(A-B) illustrate a Western blot and plots showing HEXIM1 expression in MCF7 and MCF7(TOTR) cells in the presence of vehicle (DMSO), 5 mM HMBA or 50 μM 4a1.
(§8) MCF7, MDA-MB-231, and LNCaP cells were obtained from the American Tissue Culture Collection, and were maintained as previously described. Construction of expression vectors for control miRNA or HEXIM1 miRNAs were described previously. MCF7 or LNCaP cells were transfected with expression vectors containing either the HEXIM1 miRNA insert or a control miRNA insert as previously described. Following blasticidin selection, cells expressing the highest level of GFP were flow-sorted and expanded. MDA-MB-231 cells were transfected with control or expression vector for Flag-tagged HEXIM1 as previously described. […]
Cell lysates were analyzed by western blot as previously described. […]
(§9) We have reported that HEXIM1 is required for the ability of antiestrogens to inhibit the activity of the Estrogen Receptor, that loss of HEXIM1 results in agonistic activity of tamoxifen, and that recurrence after tamoxifen therapy can be correlated with loss of HEXIM1 expression in human breast tissue samples. Thus we determined if HMBA and 4a1 can enhance sensitivity to tamoxifen of a tamoxifen resistant breast cancer line (MCF7/TOTR). […]

[5] = in vivo; cited from earlier work
[6] = system: recruitment of CDK9 to HEXIM1 gene in MCF7 cells; experiment: ChIP assay, CDK9 recruitment to HEXIM1 gene, MCF7 cells; assay type: cell-based; details: 5 mM HMBA or 50 μM 4a1, 90 minutes
Protocol: as §2, §3, §4

[7] = system: p21 expression in breast cancer MCF7 cells; experiment: p21 expression by western blot, MCF7 cells; assay type: cell-based; details: 5 mM HMBA or 50 μM 4a1, 18 hours
Protocol: (§10) FIGS. 7(A-B) illustrate Western blots showing (A) MCF7 (control siRNA or HEXIM1 siRNA) and (B) LNCaP (control shRNA or HEXIM1 shRNA) cells treated with vehicle (DMSO), 5 mM HMBA, or 50 μM 4a1 for 18 hours.
as §1
(§11) HMBA was investigated in a Phase II clinical trial due to its potent anti-cancer and cell differentiation activities. Moreover, the roles of HMBA, and potentially 4a1, as differentiating factors are advantageous for their therapeutic use when compared to cytotoxic agents. […] We also examined the ability of 4a1 to induce differentiation and the relative role of HEXIM1.

[8] = system: p21 expression in prostate cancer LNCaP cells; experiment: p21 expression by western blot, LNCaP cells; assay type: cell-based; details: 5 mM HMBA or 50 μM 4a1, 18 hours
Protocol: as §10, §1, §11

MCF7 cells = experiment: Nile red staining of lipid droplets (differentiation marker), MCF7 cells; assay type: cell-based; details: 72 hours
Protocol: as §5, §6

[9] = cited from earlier work
[10] = system: tamoxifen resistant breast cancer line (MCF7/TOTR); experiment: MTT proliferation assay, sensitivity to trans-hydroxytamoxifen; assay type: cell-based; details: 7 days, 5 mM HMBA or 50 μM 4a1
Protocol: as §7
as §8, with “expanded.” for “expanded. MDA-MB-231 cells were transfected with control or expression vector for Flag-tagged HEXIM1 as previously described.”
MCF7 cells were plated onto 96 well plates and treated with 17β-estradiol±trans-hydroxytamoxifen in the presence of DMSO (vehicle), HMBA or 4a1 for 7 days. Cell proliferation was assessed using the MTT based Cell Growth Determination Kit from Sigma-Aldrich according to the manufacturer's protocol.
as §9

[11] = administered in vivo; cited from earlier work

CC(=O)NCCCCCCNC(C)=O [HMBA, Hexamethylene bis-acetamide, reference compound]
Expression of proteins directly regulated by HEXIM1 [1]: regulated expression of proteins | Recruitment of CDK9 to HEXIM1 gene [2]: induce recruitment of CDK9 | Concentrations at which HMBA induces HEXIM1 (HEXIM1): one to five | Cell differentiation (lipid droplets, Nile red) [3]: induced differentiation | HEXIM1 expression [4]: induced HEXIM1 expression | Toxicity in Phase II clinical trial [5]: dose-dependent toxicity | Recruitment of CDK9 to HEXIM1 gene [6]: induce recruitment of CDK9 | p21 expression [7]: induced p21 expression | p21 expression [8]: induction of p21 expression | Cell differentiation (lipid droplets, Nile red) (MCF7 cells): induced differentiation | Water solubility [9]: water soluble | Sensitivity of TOTR cells to trans-hydroxytamoxifen [10]: enhanced the sensitivity | Half-life [11]: short half-life | Tissue distribution [11]: poor tissue distribution

Source: patent US10959966B2, “Compositions and methods for modulating HEXM1 expression” (CASE WESTERN RESERVE UNIVERSITY, priority 2014, dated 2021)
